Test results taken from PMC9218685, “Legume Plant Peptides as Sources of Novel Antimicrobial Molecules Against Human Pathogens” (Frontiers in Molecular Biosciences, 2022).
In brackets after ≈: the same amount, converted by molar mass. Entries after “also recorded” stand apart in the source; their conditions may differ. Ends that are not written are not given here. Peptide text beside a SMILES is read from it.

How the values were obtained:
Type in all cases: cell-based
[1] = test system: Pseudomonas aeruginosa (ATCC 27853); details: for MBC Pseudomonas aeruginosa: ATCC 27853, 3 h; for Activity against P. aeruginosa: 3 h, ~10^7 log phase bacteria, peptides ≤25 µM
Source text: (§1) The following pathogenic bacterial strains were used: The Gram-positive Enterococcus faecalis (ATCC 29212), Staphylococcus aureus (HNCMO112011), Listeria monocytogenes (ATCC 19111) and the Gram-negative Pseudomonas aeruginosa (ATCC 27853), Escherichia coli (ATCC 8739), Salmonella enterica (ATCC 13076), Klebsiella pneumoniae (NCTC 13440), Acinetobacter baumannii (ATCC 17978) obtained from the ATCC (United States) and NCTC (National Collection of Type Cultures–England). For the antifungal experiment the Candida albicans W01 strain ([Ördögh et al., 2014]) was used. Antimicrobial activities of peptides against ∼10^7 log phase bacteria were tested in Potassium-Phosphate Buffer (PPB, pH 7.4) as described by [Jenei et al. (2020)] while anti-Candida assays were done according to [Szerencsés et al. (2021)]. The two-fold dilution series of peptides ranged from 25 μM to 0.125 μM, while that of the antibiotics ampicillin (Merck) and miconazole (Duchefa Biochemie) from […] to 0.1 μM. The lowest concentration of the antimicrobial agents, which completely eliminated viable bacteria or C. albicans were considered as the minimal bactericidal concentration (MBC) and minimal fungicidal concentration (MFC).
(§2) The minimal bactericidal concentrations (MBCs) were determined after 3 h of treatment of ∼10^7 log phase bacteria with 2-fold serial dilution of peptides from 25 µM to 0.8 µM. Only 25 of the 50 cationic M. truncatula peptides had activity at ≤25 µM (Supplementary Table S1). […] Three peptides were only active against two bacterial strains; NCR649 against L. monocytogenes and A. baumannii, NCR281 against L. monocytogenes and P. aeruginosa and NCR350 against A. baumannii and P. aeruginosa. […] None of the anionic NCR peptides affected the survival of the tested bacterial strains.

[2] = test system: Listeria monocytogenes (ATCC 19111); details: for MBC Listeria monocytogenes: ATCC 19111, 3 h; for Activity against L. monocytogenes: 3 h, ~10^7 log phase bacteria, peptides ≤25 µM
Source text: as §1, §2

[3] = test system: Escherichia coli (ATCC 8739); details: for MBC Escherichia coli: ATCC 8739, 3 h
Source text: as §1, §2

[4] = test system: Enterococcus faecalis (ATCC 29212); details: for Ability to kill E. faecalis: 3 h, ~10^7 log phase bacteria, peptides ≤25 µM
Source text: as §1, §2

[5] = test system: Candida albicans W01 strain; assay: microbe, parasite or virus in culture; details: Candida albicans, W01STRAIN; C. albicans W01, two-fold dilution series; lowest concentration completely eliminating viable C. albicans; read-out: MFC, minimal fungicidal concentration against C. albicans
Source text: as §1

[6] = test system: Acinetobacter baumannii (ATCC 17978); assay: microbe, parasite or virus in culture; details: for Activity against A. baumannii: 3 h, ~10^7 log phase bacteria, peptides ≤25 µM
Source text: as §1, §2

[7] = test system: E. coli, S. enteritidis, P. aeruginosa, L. monocytogenes, S. aureus, E. faecalis, K. pneumoniae and A. baumannii; assay: Antimicrobial activity assay, spectrum over the eight tested pathogenic bacteria; details: 3 h treatment of ~10^7 log phase bacteria, peptides 25 to 0.8 µM; active = MBC ≤25 µM
Source text: as §1
We investigated the antimicrobial activity of 78 NCR peptides from M. truncatula and 12 NCRs from other IRLC legumes as well as their shorter derivatives against E. coli, S. enteritidis, P. aeruginosa, L. monocytogenes, S. aureus, E. faecalis, K. pneumoniae and A. baumannii (Supplementary Table S1). In the selection of the M. truncatula peptides, we considered their symbiotic expression levels but also their physicochemical properties. The antimicrobial activity of NCRs has so far been attributed to cationic peptides, with the exception of one anionic peptide. To investigate whether other anionic NCRs are antimicrobial, in addition to the cationic peptides, neutral and anionic NCRs were also included covering a broad range of peptides with different net charges (NC: from 7.8 to −10.2) and isoelectric points (pI: from 10.69 to 2.95). 50 peptides had positive net charge and pI > 7.0, while 28 peptides had negative net charge and pI < 7.0 (Supplementary Table S1A). Of the other legumes, only cationic NCR peptides were studied (Supplementary Table S1B).
as §2

Row | Molecule | MBC Pseudomonas aeruginosa [1] [µM] | MBC Listeria monocytogenes [2] [µM] | MBC Escherichia coli [3] [µM] | Ability to kill E. faecalis [4] | Activity against L. monocytogenes [2] | further results
1 | CC(C)C[C@H](NC(=O)[C@H](CS)NC(=O)[C@H](CCCCN)NC(=O)CNC(=O)[C@@H](N)Cc1ccccc1)C(=O)N[C@@H](CCCCN)C(=O)N[C@@H](CC(C)C)C(=O)N[C@@H](CCCCN)C(=O)N[C@@H](CS)C(=O)N[C@H](C(N)=O)C(C)C [GoNCR308 (16-25)] (H-FGKCLKLKCV-NH2; N-terminus assumed) | 12.5 (≈ 14.2 µg/mL) | 12.5 (≈ 14.2 µg/mL) | 25 (≈ 28.4 µg/mL) |  |  | 
2 | CC[C@H](C)[C@H](N)C(=O)N[C@H](C(=O)N[C@H](C(=O)N[C@@H](CC(N)=O)C(=O)N[C@@H](CCCNC(=N)N)C(=O)N[C@@H](CCCNC(=N)N)C(=O)N[C@@H](CS)C(=O)N[C@@H](CCCCN)C(=O)N[C@@H](CO)C(=O)N[C@@H](Cc1c[nH]cn1)C(=O)N[C@@H](CCCCN)C(=O)N[C@@H](CC(=O)O)C(=O)N[C@@H](CS)C(=O)N1CCC[C@H]1C(=O)NCC(=O)N[C@@H](Cc1ccccc1)C(=O)NCC(=O)N[C@@H](CCCCN)C(=O)N[C@@H](CS)C(=O)N[C@@H](CC(C)C)C(=O)N[C@@H](CCCCN)C(=O)N[C@@H](CC(C)C)C(=O)N[C@@H](CCCCN)C(=O)N[C@@H](CS)C(=O)N[C@H](C(=O)N[C@@H](Cc1ccc(O)cc1)C(=O)N[C@H](C(=O)N1CCC[C@H]1C(=O)N[C@@H](CCCCN)C(=O)N[C@@H](CCCNC(=N)N)C(=O)O)[C@@H](C)O)C(C)C)[C@@H](C)O)[C@@H](C)CC [GoNCR308] (H-IITNRRCKSHKDCPGFGKCLKLKCVYTPKR-OH; N-terminus assumed) |  |  |  | able to kill |  | 
3 | Clc1ccc(COC(Cn2ccnc2)c2ccc(Cl)cc2Cl)c(Cl)c1 (stereo not shown) [Miconazole, reference compound] |  |  |  |  |  | MFC [5]: 50600 µM (≈ 21000 µg/mL)
4 | CC[C@H](C)[C@H](NC(=O)[C@H](Cc1ccc(O)cc1)NC(=O)[C@H](C)N)C(=O)N[C@@H](CCC(=O)O)C(=O)N[C@@H](CS)C(=O)N[C@@H](CCC(=O)O)C(=O)N[C@H](C(=O)N[C@@H](CC(=O)O)C(=O)N[C@@H](CC(=O)O)C(=O)N[C@@H](CC(=O)O)C(=O)N[C@@H](CS)C(=O)N1CCC[C@H]1C(=O)N[C@@H](CCCCN)C(=O)N1CCC[C@H]1C(=O)N[C@@H](CCSC)C(=O)N[C@@H](CCCCN)C(=O)N[C@@H](CC(N)=O)C(=O)N[C@@H](CO)C(=O)N[C@@H](Cc1c[nH]cn1)C(=O)N1CCC[C@H]1C(=O)N[C@@H](CC(=O)O)C(=O)N[C@H](C(=O)N[C@@H](Cc1ccc(O)cc1)C(=O)N[C@@H](Cc1ccc(O)cc1)C(=O)N[C@@H](CCCCN)C(=O)N[C@@H](CS)C(=O)N[C@H](C(=O)N[C@@H](CCCCN)C(=O)N[C@@H](Cc1c[nH]cn1)C(=O)N[C@@H](CCCNC(=N)N)C(=O)N[C@@H](CS)C(=O)N[C@@H](CCC(N)=O)C(=O)N[C@@H](Cc1c[nH]c2ccccc12)C(=O)N[C@@H](C)C(=O)N[C@@H](Cc1c[nH]c2ccccc12)C(=O)N[C@@H](CCCCN)C(=O)O)C(C)C)[C@@H](C)O)C(C)C [NCR147] (H-AYIECEVDDDCPKPMKNSHPDTYYKCVKHRCQWAWK-OH; N-terminus assumed) | 12.5 (≈ 54.9 µg/mL) | 12.5 (≈ 54.9 µg/mL) | 25 (≈ 110 µg/mL) |  | showed activity | Activity against P. aeruginosa [1]: showed activity; Activity against E. coli ([3]; 3 h, ~10^7 log phase bacteria, peptides ≤25 µM): showed activity; Activity against A. baumannii [6]: showed activity; MBC Acinetobacter baumannii ([6]; ATCC 17978, 3 h): 3.125 µM (≈ 13.7 µg/mL)
5 | CC[C@H](C)[C@H](NC(=O)CNC(=O)[C@H](CCC(N)=O)NC(=O)[C@@H](NC(=O)[C@H](CS)NC(=O)[C@H](CCCNC(=N)N)NC(=O)[C@H](CC(C)C)NC(=O)[C@H](CCCNC(=N)N)NC(=O)[C@H](CCCNC(=N)N)NC(=O)[C@H](CC(N)=O)NC(=O)[C@@H](NC(=O)[C@H](Cc1ccc(O)cc1)NC(=O)[C@H](CCSC)NC(=O)[C@@H]1CCCN1C(=O)[C@H](Cc1ccc(O)cc1)NC(=O)[C@H](CC(C)C)NC(=O)[C@@H](NC(=O)[C@H](CC(N)=O)NC(=O)[C@H](CS)NC(=O)[C@H](CC(=O)O)NC(=O)[C@@H](NC(=O)[C@H](CC(=O)O)NC(=O)[C@H](CO)NC(=O)[C@@H](NC(=O)[C@H](CS)NC(=O)[C@H](CCC(=O)O)NC(=O)[C@@H](N)CO)[C@@H](C)CC)[C@@H](C)O)C(C)C)[C@@H](C)CC)[C@@H](C)CC)C(=O)N[C@@H](CS)C(=O)N[C@@H](Cc1c[nH]cn1)C(=O)N[C@H](C(=O)N[C@H](C(=O)N[C@H](C(=O)N[C@@H](C)C(=O)N[C@@H](CCCNC(=N)N)C(=O)N[C@@H](CCCNC(=N)N)C(=O)N[C@@H](CCCNC(=N)N)C(=O)O)[C@@H](C)O)[C@@H](C)O)[C@@H](C)O [NCR299] (H-SECISDTDCNVLYPMYINRRLRCIQGICHTTTARRR-OH; N-terminus assumed) | 3.125 (≈ 13.3 µg/mL) | 12.5 (≈ 53.2 µg/mL) | 12.5 (≈ 53.2 µg/mL) | able to kill |  | MBC Enterococcus faecalis ([4]; ATCC 29212, 3 h): 12.5 µM (≈ 53.2 µg/mL); Antibacterial spectrum over the eight tested bacterial strains [7]: effective against five or four strains
6 | CC[C@H](C)[C@H](NC(=O)[C@@H]1CCCN1C(=O)[C@H](CC(C)C)NC(=O)[C@H](CS)NC(=O)[C@H](CCCCN)NC(=O)[C@H](CS)NC(=O)[C@H](CCSC)NC(=O)[C@H](CCCNC(=N)N)NC(=O)[C@H](CCCNC(=N)N)NC(=O)[C@@H](NC(=O)[C@H](CS)NC(=O)[C@H](CCCNC(=N)N)NC(=O)[C@@H]1CCCN1C(=O)[C@H](CCC(=O)O)NC(=O)[C@H](CCSC)NC(=O)CNC(=O)[C@@H]1CCCN1C(=O)[C@@H]1CCCN1C(=O)[C@H](CS)NC(=O)[C@H](CCSC)NC(=O)[C@H](Cc1c[nH]cn1)NC(=O)[C@@H]1CCCN1C(=O)[C@@H]1CCCN1C(=O)[C@H](CS)NC(=O)[C@H](Cc1c[nH]cn1)NC(=O)[C@H](CO)NC(=O)[C@H](CC(=O)O)NC(=O)[C@@H](NC(=O)[C@@H](NC(=O)[C@H](CS)NC(=O)[C@H](CC(C)C)NC(=O)[C@@H](N)Cc1ccc(O)cc1)C(C)C)[C@@H](C)O)C(C)C)C(=O)NCC(=O)N[C@@H](Cc1c[nH]c2ccccc12)C(=O)N[C@@H](CCCNC(=N)N)C(=O)N[C@@H](CCCCN)C(=O)N[C@@H](Cc1ccc(O)cc1)C(=O)N[C@@H](Cc1ccccc1)C(=O)N[C@H](C(=O)N1CCC[C@H]1C(=O)O)C(C)C [NCR336] (H-YLCVTDSHCPPHMCPPGMEPRCVRRMCKCLPIGWRKYFVP-OH; N-terminus assumed) |  |  |  | able to kill |  | Antibacterial spectrum over the eight tested bacterial strains [7]: capable of killing all tested bacteria; also recorded: active against all the eight tested pathogens
7 | CC(C)C[C@H](NC(=O)[C@H](CS)NC(=O)[C@@H](NC(=O)[C@H](CS)NC(=O)[C@H](CCCCN)NC(=O)[C@@H](NC(=O)[C@@H](NC(=O)[C@H](CCC(=O)O)NC(=O)[C@@H]1CCCN1C(=O)[C@@H]1CCCN1C(=O)[C@@H](NC(=O)[C@H](CS)NC(=O)[C@H](CCCCN)NC(=O)[C@H](CC(C)C)NC(=O)[C@@H](NC(=O)[C@@H](N)CCCCN)C(C)C)[C@@H](C)O)C(C)C)C(C)C)[C@@H](C)O)C(=O)N[C@@H](CS)C(=O)NCC(=O)N[C@@H](CCCCN)C(=O)N[C@@H](CCCNC(=N)N)C(=O)N[C@H](C(=O)N[C@@H](CC(C)C)C(=O)N[C@@H](Cc1ccc(O)cc1)C(=O)O)[C@@H](C)O [NCR649] (H-KVLKCTPPEVVKCTCLCGKRTLY-OH; N-terminus assumed) |  |  |  |  | active | Activity against A. baumannii [6]: active
8 | GRYTTPWCVRDIDCPKEKCKHPFKPRCLTHSCVCRLWGSQDVI-OH (cysteines drawn unpaired) [NCR281] |  |  |  |  | active | Activity against P. aeruginosa [1]: active
